Test results: US12250947B2, “Substituted azaspiro-cycles as herbicides” (SYNGENTA CROP PROTECTION AG, priority 2019, dated 2025)

How the values were obtained:
Type in all cases: in vivo
[1] = tested on: Echinochloa crus-galli (ECHCG); assay: Herbicidal glasshouse test, pre-emergence, ECHCG; details: 250 g/Ha, evaluated after 13 days
Method: (§1) Seeds of a variety of test species are sown in standard soil in pots (Lolium perenne (LOLPE), Setaria faberi (SETFA), Alopecurus myosuroides (ALOMY), Echinochloa crus-galli (ECHCG), Avena fatua (AVEFA)). […] Compounds are applied at 250 g/h. The test plants are then grown in a glasshouse under controlled conditions in a glasshouse (at 24/16° C., day/night; 14 hours light; 65% humidity) and watered twice daily. After 13 days for pre and post-emergence, the test is evaluated for the percentage damage caused to the plant. […] NT=not tested.

[2] = tested on: Alopecurus myosuroides (ALOMY); assay: Herbicidal glasshouse test, post-emergence, ALOMY; details: 250 g/Ha, evaluated after 13 days
Method: as §1

Setaria faberi (SETFA) [3] = assay: Herbicidal glasshouse test, post-emergence, SETFA; details: 250 g/Ha, evaluated after 13 days
Method: as §1

Lolium perenne (LOLPE) [4] = assay: Herbicidal glasshouse test, post-emergence, LOLPE; details: 250 g/Ha, evaluated after 13 days
Method: as §1

Avena fatua (AVEFA) [5] = assay: Herbicidal glasshouse test, pre-emergence, AVEFA; details: 250 g/Ha, evaluated after 13 days
Method: as §1

Avena fatua (AVEFA) [6] = assay: Herbicidal glasshouse test, post-emergence, AVEFA; details: 250 g/Ha, evaluated after 13 days
Method: as §1

Setaria faberi (SETFA) [7] = assay: Herbicidal glasshouse test, pre-emergence, SETFA; details: 250 g/Ha, evaluated after 13 days
Method: as §1

[8] = tested on: Echinochloa crus-galli (ECHCG); assay: Herbicidal glasshouse test, post-emergence, ECHCG; details: 250 g/Ha, evaluated after 13 days
Method: as §1

wheat crop plants = assay: Crop phytotoxicity comparison, post-emergence, wheat; details: for damage to the wheat and barley crops compared to prior art compound C1: summary of Table B3
Method: (§2) Seeds of a variety of test species are sown in standard soil in pots (Lolium perenne (LOLPE), Setaria faberi (SETFA), Alopecurus myosuroides (ALOMY), Echinochloa crus-galli (ECHCG), Avena fatua (AVEFA)). After cultivation for one day (pre-emergence) or after 8 days cultivation (post-emergence) under controlled conditions in a glasshouse (at 24/16° C., day/night; 14 hours light; 65% humidity), the plants are sprayed with an aqueous spray solution derived from the formulation of the technical active ingredient in acetone/water (50:50) solution containing 0.5% Tween 20 (polyoxyethelyene sorbitan monolaurate, CAS RN 9005-64-5). Compounds are applied at 250 g/h. The test plants are then grown in a glasshouse under controlled conditions in a glasshouse (at 24/16° C., day/night; 14 hours light; 65% humidity) and watered twice daily. After 13 days for pre and post-emergence, the test is evaluated for the percentage damage caused to the plant. The biological activities are shown in the following table on a five-point scale (5=80-100%; 4=60-79%; 3=40-59%; 2=20-39%; 1=0-19%). NT=not tested.
(§3) Using procedures outlines above, wheat and barley crop plants are treated, post-emergence with compounds A1 or A4 of the present invention or comparator compound C1 (Compound A-38 from WO2014/096289) at the application rates indicated. The compounds were also applied in conjunction with the safener compound cloquintocet-mexyl (CQC) at 50 g/ha.

[9] = tested on: Alopecurus myosuroides (ALOMY); assay: Herbicidal glasshouse test, pre-emergence, ALOMY; details: 250 g/Ha, evaluated after 13 days
Method: as §1

Lolium perenne (LOLPE) [10] = assay: Herbicidal glasshouse test, pre-emergence, LOLPE; details: 250 g/Ha, evaluated after 13 days
Method: as §1

barley crop plants = assay: Crop phytotoxicity comparison, post-emergence, barley
Method: as §2, §3

[11] = rate 60 g/ha + safener cloquintocet-mexyl (CQC) at 50 g/ha

## CC#Cc1cc(C)c(C2C(=O)CC3(CCN(C(=O)C(=O)C(F)(F)F)CC3)CC2=O)c(C)c1 [Compound A3]
[1]
  percentage damage caused to the plant, five-point scale, ECHCG: 5 (5=80-100%)
[2]
  percentage damage caused to the plant, five-point scale, ALOMY: 5 (5=80-100%)
Setaria faberi (SETFA) [3]
  percentage damage caused to the plant, five-point scale, SETFA: 5 (5=80-100%)
Lolium perenne (LOLPE) [4]
  percentage damage caused to the plant, five-point scale, LOLPE: 5 (5=80-100%)
Avena fatua (AVEFA) [5]
  percentage damage caused to the plant, five-point scale, AVEFA: 4 (4=60-79%)
Avena fatua (AVEFA) [6]
  percentage damage caused to the plant, five-point scale, AVEFA: 5 (5=80-100%)
Setaria faberi (SETFA) [7]
  percentage damage caused to the plant, five-point scale, SETFA: 5 (5=80-100%)
[8]
  percentage damage caused to the plant, five-point scale, ECHCG: 5 (5=80-100%)
Wheat crop plants
  damage to the wheat and barley crops compared to prior art compound C1: significantly less damaging
[9]
  percentage damage caused to the plant, five-point scale, ALOMY: 5 (5=80-100%)
Lolium perenne (LOLPE) [10]
  percentage damage caused to the plant, five-point scale, LOLPE: 5 (5=80-100%)

## CC#Cc1cc(C)c(C2C(=O)CC3(CCOCC3)CC2=O)c(C)c1 [Compound C1, reference compound]
Wheat crop plants; rate 30 g/ha
  % phytotoxicity observed, Wheat: 40%
Wheat crop plants; rate 60 g/ha
  % phytotoxicity observed, Wheat: 70%
Wheat crop plants; [11]
  % phytotoxicity observed, Wheat: 60%
Barley crop plants; rate 30 g/ha
  % phytotoxicity observed, Barley: 80%
Barley crop plants; rate 60 g/ha
  % phytotoxicity observed, Barley: 90%

## CC#Cc1cc(C)c(C2C(=O)CC3(CCN(C(=O)C(C)=O)CC3)CC2=O)c(C)c1 [Compound A1, 9-(2,6-dimethyl-4-prop-1-ynyl-phenyl)-3-(2-oxopropanoyl)-3-azaspiro[5.5]undecane-8,10-dione]
[1]
  percentage damage caused to the plant, five-point scale, ECHCG: 5 (5=80-100%)
[2]
  percentage damage caused to the plant, five-point scale, ALOMY: 5 (5=80-100%)
Setaria faberi (SETFA) [3]
  percentage damage caused to the plant, five-point scale, SETFA: 5 (5=80-100%)
Lolium perenne (LOLPE) [4]
  percentage damage caused to the plant, five-point scale, LOLPE: 5 (5=80-100%)
Avena fatua (AVEFA) [5]
  percentage damage caused to the plant, five-point scale, AVEFA: 5 (5=80-100%)
Avena fatua (AVEFA) [6]
  percentage damage caused to the plant, five-point scale, AVEFA: 5 (5=80-100%)
Setaria faberi (SETFA) [7]
  percentage damage caused to the plant, five-point scale, SETFA: 5 (5=80-100%)
[8]
  percentage damage caused to the plant, five-point scale, ECHCG: 5 (5=80-100%)
Wheat crop plants; rate 30 g/ha
  % phytotoxicity observed, Wheat: 0%
Wheat crop plants; rate 60 g/ha
  % phytotoxicity observed, Wheat: 10%
Wheat crop plants; [11]
  % phytotoxicity observed, Wheat: 0%
Wheat crop plants
  damage to the wheat and barley crops compared to prior art compound C1: significantly less damaging
[9]
  percentage damage caused to the plant, five-point scale, ALOMY: 5 (5=80-100%)
Lolium perenne (LOLPE) [10]
  percentage damage caused to the plant, five-point scale, LOLPE: 5 (5=80-100%)
Barley crop plants; rate 30 g/ha
  % phytotoxicity observed, Barley: 0%
Barley crop plants; rate 60 g/ha
  % phytotoxicity observed, Barley: 0%
